Measurements reported in patent US20250281498A1, “FUSED AMINO PYRIMIDINE COMPOUNDS FOR TREATMENT OF SYNUCLEINOPATHIES AND TDP-43 PROTEINOPATHIES” (Ovid Therapeutics Inc., priority 2024, published 2025).

Tests used:
[1] = PK studies, brain and plasma levels by LC-MS/MS; type: in vivo; settings: mice
Experimental: PK studies. […] Plasma and brain samples were rapidly frozen on dry ice.
Drug accumulation in the brain was examined following SC injection (FIG. 4C; 50 mg/kg).

[2] = test system: hippocampal neurons; experiment: whole cell patch-clamp recording of EGABA with imposed Cl− load in hippocampal neurons; type: cell-based, Sprague Dawley; settings: incubated 1 h, 32 mM Cl− load, 5 min after break-in, controls −47.4±2.3
Experimental: Neuronal Cultures. Hippocampal neurons were prepared from Sprague Dawley E18 embryos and plated at 450,000 per dish and maintained at 37° C. in a humidified 5% CO2 incubator for 10-25 days before experimentation (Lee et al., Nat. Neurosci. 14, 736-743 (2011)).
Neuronal Patch clamp assays. Neuronal cell culture recordings were performed in bath saline at 34° C. For gramicidin perforated-patch experiments, pipettes contained (in mM): 140 KCl and 10 HEPES, pH 7.4 KOH. For whole-cell experiments, pipettes contained (in mM): 115 K-meth-SO4, 30 KCl, 2 Mg-ATP, 4 Na-ATP, 0.4 Na-GTP, and 10 HEPES, pH 7.4 KOH. Bath saline contained the following (in mM): 140 NaCl, 2.5 KCl, 2.5 CaCl2, 2.5 MgCl2, 10 HEPES, and 11 glucose, pH 7.4 NaOH (Kontou et al., 2021, supra). All compound solutions were applied to cells using a three-barreled 700 μm pipe positioned just above the cell (Warner Instruments). […] All voltages from whole-cell experiments were corrected offline using a calculated liquid junction potential value (13.6 mV) in Clampex (Molecular Devices). For gramicidin perforated-patch experiments, intracellular Cl^− values were back-calculated using measured EGABA values and the Nernst equation: […]
5 min after break-in, an initial EGABA value was determined and the effects of a subsequent 5 min incubation with VU0463271 was assessed.

[3] = biological target: T1, KCC3 (Homo sapiens, UniProt Q9UHW9); experiment: TI+ flux assay, HEK-293 cells expressing KCC3; type: cell-based; settings: read-out: concentration at which effects on KCC3 were seen (EC50 chart FIG. 1G)
T1 construct: expressed in transfected cells; host or cells: HEK-293
T1 sequence (Q9UHW9 1-1150): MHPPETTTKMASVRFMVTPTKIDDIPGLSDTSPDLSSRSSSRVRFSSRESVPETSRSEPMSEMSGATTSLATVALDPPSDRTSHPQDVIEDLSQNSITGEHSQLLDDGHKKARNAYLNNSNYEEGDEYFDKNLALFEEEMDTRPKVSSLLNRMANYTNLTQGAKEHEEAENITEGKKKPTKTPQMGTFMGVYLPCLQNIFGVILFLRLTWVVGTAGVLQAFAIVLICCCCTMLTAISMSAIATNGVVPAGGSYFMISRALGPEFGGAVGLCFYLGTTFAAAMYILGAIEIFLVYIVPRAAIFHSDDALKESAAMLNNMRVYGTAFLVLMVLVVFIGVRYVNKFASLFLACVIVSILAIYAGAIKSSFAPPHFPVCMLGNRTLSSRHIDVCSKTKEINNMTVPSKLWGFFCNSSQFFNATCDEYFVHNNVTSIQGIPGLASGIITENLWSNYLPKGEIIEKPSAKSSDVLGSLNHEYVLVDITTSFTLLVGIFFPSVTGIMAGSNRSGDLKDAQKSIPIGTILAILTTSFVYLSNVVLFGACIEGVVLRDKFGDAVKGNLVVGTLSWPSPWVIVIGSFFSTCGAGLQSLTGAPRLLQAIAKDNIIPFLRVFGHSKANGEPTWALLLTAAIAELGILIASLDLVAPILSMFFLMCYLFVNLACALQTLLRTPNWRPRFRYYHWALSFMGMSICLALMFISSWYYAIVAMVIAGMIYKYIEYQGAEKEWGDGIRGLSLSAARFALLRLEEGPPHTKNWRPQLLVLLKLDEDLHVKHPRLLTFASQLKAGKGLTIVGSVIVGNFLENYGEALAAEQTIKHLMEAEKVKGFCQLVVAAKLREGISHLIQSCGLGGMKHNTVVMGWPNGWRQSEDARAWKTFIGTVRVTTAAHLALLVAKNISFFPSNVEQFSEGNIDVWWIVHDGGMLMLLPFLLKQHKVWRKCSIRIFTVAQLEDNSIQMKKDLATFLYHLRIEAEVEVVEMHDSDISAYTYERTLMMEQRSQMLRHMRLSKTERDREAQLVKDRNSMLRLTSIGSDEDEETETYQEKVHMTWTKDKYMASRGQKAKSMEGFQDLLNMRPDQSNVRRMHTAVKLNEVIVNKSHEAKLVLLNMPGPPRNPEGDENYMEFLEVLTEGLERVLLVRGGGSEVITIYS
Experimental: FLIPR TI Flux assay. HEK-293 cells were washed with HBSS, and then incubated with loading buffer containing TI sensitive fluorescent dye (https://www.moleculardevices.com), 20 μM bumetanide 20 μM ouabain and 2.5 mM probenecid for 1 h at room temperature (RT) under control conditions or with drugs in the dark using a FlexStation 3 microplate reader (Molecular Devices) and imaged […] for 30 min. Stimulus buffer was added containing 5 mM K^+/0.5 mM Tl^+ and cells were imaged every 1.5 over a 190 second time course The initial rate Tl^+ uptake (Relative Fluorescence Units (RFU) per second) was determined following addition of the stimulus buffer as outlined previously (Conway et al., 2017, supra) (Lee et al., 2022, supra).
Several studies have shown that the activity and plasma membrane accumulation of KCC2 is potentiated via phosphorylation of S940, a process mediated by the activity of protein kinase C and protein phosphatase 1 (Lee et al., 2011, supra; Lee et al., J Biol Chem 282, 29777-29784 (2007); Moore et al., Proc. Natl. Acad. Sci. U.S.A. 115, 10166-10171 (2018); Moore et al., Trends Neurosci. 40, 555-571 (2017); Silayeva et al., Proc. Natl. Acad. Sci. U.S.A. 112, 3523-3528 (2015)). […] Compared to KCC2, effects on KCC3, KCC4, and NKCC1 were only seen at concentrations more than 35-fold that of KCC2 (>100 μM) (FIG. 1G).

C[C@@H]1CN(c2nc3c(c(Nc4ccc(C5CCCCC5)cc4)n2)COC3)CCO1 [Compound A, (R)—N-(4-cyclohexylphenyl)-2-(2-methylmorpholino)-5,7-dihydrofuro[3,4-d]pyrimidin-4-amine]
time at which accumulation in the brain was evident ([1]; 25 mg/kg IV bolus): ≤ 30 min | brain level 8 h later ([1]; SC 50 mg/kg): maintained | time at which accumulation in the brain was detected ([1]; SC 50 mg/kg): 30 min | time of maximal concentration in the brain ([1]; SC 50 mg/kg): 4 h | basal EGABA [2]: -59.3 ± 2.1 mV | EC50 [3]: > 100 µM
